Several values for one entry are separate records, joined by “and”; a condition that tells them apart may be missing. Equal entries are not always repeated. Where two headings read alike, the source gives them in different places.
Assays:
[1] = molecular target: T1, Proton Pump (H^+ /K^+ ATPase) (Oryctolagus cuniculus, UniProt P27112); experiment: Inhibition of Proton Pump (H+/K+ ATPase) Activity, in vitro enzyme reaction (Experiment 1); format: biochemical, New Zealand white rabbit
T1 construct: The microsomes thus obtained were used as an enzyme source of the in vitro enzyme reaction study of proton pump; from tissue; host or cells: rabbit stomach, mucosal scrapings, microsomes (180,000 g pellet)
Summary of the method: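 Rabbit gastric mucosal microsomes (100 μg/ml) in 50 mM Tris-HCl pH 7.2 with 8 mM MgCl2, 100 mM KCl and 20 mM NH4Cl were preincubated with compound for 15 min at 37 °C. Reaction ran 30 min at 37 °C with 6.7 mM ATP; released phosphate was measured. K+-stimulated activity (Mg/K minus Mg alone) gave IC50 via Litchfield-Wilcoxon.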

proton pump = conditions: background statement; cited from earlier work
[2] = molecular target: T2, H^+ /K^+ ATPase, gastric vesicles (Sus scrofa, UniProt P19156); experiment: Reversibility of inhibition, Dilution and Washout method (Experiment 4-3); format: biochemical, pig; conditions: for Reversibility of the inhibition of the enzyme activity: conclusion from Table 4; for Inhibition of H+/K+ ATPase activity after Dilution and Washout: diluted 50 times; for Inhibition of H+/K+ ATPase activity after Dilution and Washout / Inhibition of H+/K+ ATPase activity before Dilution and Washout: pH 6.4, Example 34 at 6 μM, omeprazole and SK&F96067 at 60 μM
T2 construct: Gastric vesicles were prepared from pig stomach; from tissue; host or cells: pig stomach, lyophilized gastric vesicles
Experimental: The vesicles were lyophilized and kept at -70° C.
To all […] groups, was added 100 μl of lyophilized vesicles prepared in Experiment 4-1 at the concentration of 100 μg protein 1 ml. Then, 5 mM Pipes/Tris buffer(pH 6.4 ) was added to the three groups until the volume of test tubes became 150 μl. After the preincubation for 15 minutes, H^+ /K^+ ATPase activity was measured in accordance with the same procedures as in Experiment 4-2. The concentrations of the test substances as indicated above are the final concentrations.
After the completion of preincubation, each group was diluted 50 times with 5 mM Pipes/Tris buffer(pH 6.4), and then centrifuged for 60 minutes by means of Beckman ultracentrifuge(Model L8-80). The supernatant was discarded and the pellet was suspended with 5 mM Pipes/Tris buffer pH 6.4 until the volume became the same as the preincubation volume.

gastric secretion = experiment: Inhibition of Gastric Secretion, pylorus-ligated rats (Experiment 2); format: in vivo, Sprague-Dawley rats; conditions: relative to omeprazole (equation III), 20 mg/kg intraduodenally, pylorus-ligated rats, 5 hours
Summary of the method: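 Sprague-Dawley rats (170±10 g, n=5/group), fasted 24 h, pylorus-ligated under ether; compounds given intraduodenally at 20 mg/kg in 30% aqueous PEG 400. Gastric juice collected after 5 h, volume and acidity measured; relative volume, acid concentration and acid output computed versus vehicle and omeprazole groups.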

T2 sequence (P19156 2-1034 limits assumed): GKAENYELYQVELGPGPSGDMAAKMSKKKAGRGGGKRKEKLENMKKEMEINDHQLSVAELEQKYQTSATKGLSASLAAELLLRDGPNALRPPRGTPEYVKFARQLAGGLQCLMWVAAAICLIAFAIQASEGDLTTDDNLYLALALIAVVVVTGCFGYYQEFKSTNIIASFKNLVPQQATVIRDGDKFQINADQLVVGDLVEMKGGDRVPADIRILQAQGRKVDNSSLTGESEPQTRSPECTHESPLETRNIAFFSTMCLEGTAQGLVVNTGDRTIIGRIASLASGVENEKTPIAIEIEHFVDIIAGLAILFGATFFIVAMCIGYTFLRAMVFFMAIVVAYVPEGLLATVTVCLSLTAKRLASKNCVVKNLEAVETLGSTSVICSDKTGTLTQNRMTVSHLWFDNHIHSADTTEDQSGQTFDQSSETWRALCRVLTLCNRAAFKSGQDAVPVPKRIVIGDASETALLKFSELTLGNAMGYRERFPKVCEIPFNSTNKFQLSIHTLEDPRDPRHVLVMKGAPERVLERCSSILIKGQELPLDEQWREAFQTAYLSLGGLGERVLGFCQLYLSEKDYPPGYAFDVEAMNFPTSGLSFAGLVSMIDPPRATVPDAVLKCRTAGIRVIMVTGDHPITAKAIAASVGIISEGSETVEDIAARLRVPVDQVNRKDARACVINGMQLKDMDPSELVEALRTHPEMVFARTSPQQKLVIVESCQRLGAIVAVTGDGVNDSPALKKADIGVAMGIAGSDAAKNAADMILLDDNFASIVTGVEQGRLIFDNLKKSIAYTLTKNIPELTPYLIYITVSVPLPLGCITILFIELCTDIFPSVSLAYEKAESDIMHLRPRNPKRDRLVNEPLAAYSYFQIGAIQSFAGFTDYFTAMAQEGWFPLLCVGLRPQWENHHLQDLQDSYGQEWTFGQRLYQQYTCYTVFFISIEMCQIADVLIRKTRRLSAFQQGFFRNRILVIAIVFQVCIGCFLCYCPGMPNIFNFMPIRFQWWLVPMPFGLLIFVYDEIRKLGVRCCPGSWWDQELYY
T2 sequence (P18434 whole entry partner): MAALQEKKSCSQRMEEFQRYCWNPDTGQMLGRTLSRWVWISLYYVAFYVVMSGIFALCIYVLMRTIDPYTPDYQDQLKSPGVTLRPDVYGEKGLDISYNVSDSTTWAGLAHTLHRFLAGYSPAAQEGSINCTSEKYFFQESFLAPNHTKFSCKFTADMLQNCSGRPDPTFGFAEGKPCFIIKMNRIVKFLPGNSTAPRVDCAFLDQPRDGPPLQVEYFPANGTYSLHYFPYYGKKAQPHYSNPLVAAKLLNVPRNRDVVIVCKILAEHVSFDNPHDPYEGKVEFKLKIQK
T1 sequence (P27112 whole entry): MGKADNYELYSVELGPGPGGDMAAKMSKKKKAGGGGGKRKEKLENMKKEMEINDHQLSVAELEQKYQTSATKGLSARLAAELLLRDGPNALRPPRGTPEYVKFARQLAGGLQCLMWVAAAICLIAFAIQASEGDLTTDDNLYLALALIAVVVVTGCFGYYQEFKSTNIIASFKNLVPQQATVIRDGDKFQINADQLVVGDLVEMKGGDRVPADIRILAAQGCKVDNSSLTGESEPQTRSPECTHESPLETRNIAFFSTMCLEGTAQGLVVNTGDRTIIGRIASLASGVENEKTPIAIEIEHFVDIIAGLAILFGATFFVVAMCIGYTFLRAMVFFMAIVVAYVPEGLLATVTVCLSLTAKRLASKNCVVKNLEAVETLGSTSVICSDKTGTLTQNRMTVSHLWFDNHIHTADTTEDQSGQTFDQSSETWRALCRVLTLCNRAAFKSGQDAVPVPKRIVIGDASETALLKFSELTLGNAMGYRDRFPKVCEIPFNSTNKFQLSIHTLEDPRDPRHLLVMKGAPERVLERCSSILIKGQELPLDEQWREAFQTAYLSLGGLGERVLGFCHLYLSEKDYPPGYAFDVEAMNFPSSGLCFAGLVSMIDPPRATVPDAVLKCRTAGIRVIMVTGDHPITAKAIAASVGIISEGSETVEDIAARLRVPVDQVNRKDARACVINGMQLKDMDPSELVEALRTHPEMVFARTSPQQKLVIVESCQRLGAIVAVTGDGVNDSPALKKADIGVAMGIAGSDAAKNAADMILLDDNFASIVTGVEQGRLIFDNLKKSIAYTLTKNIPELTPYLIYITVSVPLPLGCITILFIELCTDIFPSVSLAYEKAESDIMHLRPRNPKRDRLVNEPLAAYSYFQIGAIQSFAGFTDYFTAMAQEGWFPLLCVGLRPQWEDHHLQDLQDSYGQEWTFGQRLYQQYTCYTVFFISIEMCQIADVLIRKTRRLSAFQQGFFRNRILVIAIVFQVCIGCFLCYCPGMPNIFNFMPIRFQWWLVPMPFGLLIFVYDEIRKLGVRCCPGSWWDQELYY
T1 sequence (P18597 whole entry partner): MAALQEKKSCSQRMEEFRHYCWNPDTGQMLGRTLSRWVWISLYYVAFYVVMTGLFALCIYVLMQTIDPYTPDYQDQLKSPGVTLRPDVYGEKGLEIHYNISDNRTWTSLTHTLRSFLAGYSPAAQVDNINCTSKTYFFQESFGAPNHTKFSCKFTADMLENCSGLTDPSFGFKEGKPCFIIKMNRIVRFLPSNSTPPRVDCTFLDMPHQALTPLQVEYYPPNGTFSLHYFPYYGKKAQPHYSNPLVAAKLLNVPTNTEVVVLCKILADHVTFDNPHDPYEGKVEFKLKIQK

Effect ratio ([1]; IC50 of Omeprazole / IC50 of test compound) | IC50 ([1]; K+-stimulated H+/K+ ATPase activity, rabbit gastric microsomes, pH 7.2, 37° C., 15 min prereaction, 30 min reaction, read-out: IC50 of test compound, inhibition (50%) of the proton pump activity) [µM] | Compound | IC50 ([1]; comparative compound, value printed on the line of each test compound, read-out: IC50 of Omeprazole, inhibition (50%) of the proton pump activity) | Reversibility of the proton pump inhibition (proton pump) | Reversibility of the inhibition of the enzyme activity [2] | Inhibition of H+/K+ ATPase activity after Dilution and Washout [2] [%] | Inhibition of H+/K+ ATPase activity before Dilution and Washout [2] [%] | Relative Acid Output (gastric secretion)
 |  | COc1ccc2[nH]c([S+]([O-])Cc3ncc(C)c(OC)c3C)nc2c1 (centres unmarked) [Omeprazole, omeprazole, reference compound] | 9.5 µM and 9.3 µM | irreversible | irreversible | 67 | 80 | 
5.45 | 1.7 | COc1cccc2c(N3CCc4ccccc4C3C)nc(Nc3ccc(F)cc3C)nc12.Cl (centres unmarked) [Example 34, 8-Methoxy-2-(4-Fluoro-2-Methyl-Phenylamino)-4-(1-Methyl-1,2,3,4-Tetrahydroisoquinoline-2-Yl)Quinazoline Hydrochloride] |  |  | reversible | 16 | 84 | 0.97

— patent US5686458A, “Quinazoline deriviates for treating peptic ulcer” (Yuhan Corporation, priority 1992, dated 1997)
